Values quoted from earlier work in patent US20230240327A1, “FUNCTIONAL SOYBEAN MEAL” (CAN TECHNOLOGIES, INC., priority 2020, published 2023).
Where two headings read alike, the source gives them in different places. Blank lines part the entries; values can stand above or below the compound they belong to.

Legend:
[1] = system: poultry
[2] = system: Bacteria; conditions: when in their dissociated form
[3] = Table 7
[4] = system: microorganisms; conditions: according to several studies; compared with antibiotics

Compound: O=C(O)c1ccccc1 [Benzoic acid]
- Main effects ([1]; 0.20 wt% of feed): Positive influence on growth.

Compound: CCCC(=O)O [Butyric acid]
- Main effects ([1]; 0.15 wt% of feed (butyric acid)): Maintain the beneficial micro flora

Compound: O=CO [Formic acid]
- bactericidal effect [2]: bactericidal effect
- Main effects ([1]; 0.50 - 1.00 wt% of feed (formic acid)): Reduction of coecal pH and bactericidal effect on Salmonella.

Compound: O=C(O)/C=C/C(=O)O [Fumaric acid]
- Main effects ([1]; 0.50 - 1.00 wt% of feed (fumaric acid)): Improvement in weight gain of broilers.

Compound: CC(O)C(=O)O (stereo not drawn) [Lactic acid]
- bactericidal effect [2]: bactericidal effect
- Main effects ([1]; 2.00 wt% of feed): Feed to gain ratio significantly improved. Body weight gain.

- pKa [3]: 5.13
Compound: CCCCCCCCCCCC(=O)O [Lauric acid]

Compound: O=C(O)CC(O)C(=O)O (stereo not drawn) [Malic acid]
- Main effects ([1]; 0.50 - 2.00 wt% of feed): Increase in weight gain.

Compound: CCC(=O)O [Propionic acid (buffered), Propionic acid]
- Main effects ([1]; 0.15 - 0.20 wt% of feed (buffered propionic acid)): Increase in dressing percentage in female broilers.

Compound: CCC(=O)O [Propionic acid]
- bactericidal effect [2]: bactericidal effect

Compound: C/C=C/C=C/C(=O)O [Sorbic acid]
- bactericidal effect [2]: bactericidal effect
- Main effects ([1]; 1.12 wt% of feed): Improves feed efficiency.

Compound: O=C(O)C(O)C(O)C(=O)O (stereo not drawn) [Tartaric acid]
- Main effects ([1]; 0.33 wt% of feed): Improves weight gain.

Compound: Cc1ccc(C(C)C)cc1O [carvacrol]
- antimicrobial activity [4]: stronger than in some antibiotics

Compound: C=CCc1ccc(O)c(OC)c1 [eugenol]
- antimicrobial activity [4]: stronger than in some antibiotics

Compound: CC(C)=CCC/C(C)=C/CO [geraniol]
- antimicrobial activity [4]: stronger than in some antibiotics

Compound: Cc1ccc(C(C)C)c(O)c1 [thymol]
- antimicrobial activity [4]: stronger than in some antibiotics
